This is an account of results in patent US20260097046A1, “PLASMODIUM FALCIPARUM BLOOD STAGE INHIBITORS” (University of Georgia Research Foundation, Inc., priority 2023, published 2026).

This data set is described as follows: Solubility by HPLC assay. The format is physicochemical. To be noted: pH 7.4, HPLC assay. How it is done: Solubility was assessed for selected compounds using an HPLC assay.

The structures appear in SMILES notation.

Consider `Cc1ccc(-c2cncc(C(=O)N(C)c3ccc(Cl)cc3)c2)cc1` [APZ-2160, N-(4-chlorophenyl)-N-methyl-5-(p-tolyl)nicotinamide], for which the “Solubility (μM) at pH 7.4” value is on record as 12.8 μM. Take `Cc1ccc(N(C)C(=O)c2ncn(-c3ccc(C)cc3)n2)cc1` [APZ-2327, N-methyl-N,1-di-p-tolyl-1H-1,2,4-triazole-3-carboxamide]: the “Solubility (μM) at pH 7.4” value is 19.1 μM.
